{"source": "patent US20060167094A1", "about": "“Satiety agent” (priority 2005, published 2006)", "key": {"[1]": {"assay": "Appetite perceptions (VAS scores) during and after 90 min intraduodenal infusion", "type": "in vivo, human", "description": "(§1) Each subject was studied on three occasions, separated by 3-10 days, to evaluate, in a double-blind, randomized fashion, the effects of intraduodenal infusions of 1) C12, 2) C10, or 3) control solution for 90 min on appetite perceptions, energy intake, APD pressures, and plasma CCK and GLP-1 concentrations.\n(§2) Once the catheter was positioned correctly, fasting motility was monitored until the occurrence of phase III of the interdigestive migrating motor complex (MMC). Immediately after the cessation of phase III activity [at time t=−15 min], a baseline venous blood sample was taken, and a visual analog scale questionnaire (VAS) (see Measurements), assessing appetite-related sensations, was administered. At t=0 min (i.e., during phase I of the MMC), the duodenal infusion of 1) C12, 2) C10, or 3) control solution was commenced and continued for 90 min. APD pressures were monitored throughout the infusion period; blood samples were taken, and the VAS administered every 15 min from t=0 min until t=90 min. At t=90 min, the infusion was terminated, and the subject was immediately extubated and offered a cold buffet-style meal, the composition of which is provided in Table 1. The amount of food offered was in excess of what the subject was expected to consume. The subject was given 30 min (i.e., t=90 min to t=120 min) to consume the meal and instructed to eat until comfortably full. After ingestion of the meal, the subject was monitored for a further 30 min, a further VAS was completed, and blood samples were taken at t=120 and 150 min. The intravenous cannula was then removed, and the subject was allowed to leave the laboratory.\nAppetite sensations and energy intake. Subjective sensations of appetite, including hunger, fullness, desire to eat, prospective consumption (“how much food do you think you could eat if you were given a meal now?”), were assessed using validated VASs (Sensations of nausea and bloating were also assessed. Each VAS evaluated a sensation on a 100-mm horizontal line, where 0 represented “sensation is not felt at all” and 100 represented “sensation is felt the greatest.” Subjects were asked to place a vertical stroke on the 100-mm line in relation to what they were feeling at that particular point in time.\nBaseline (“0”) values were calculated as the mean of values obtained at t=−15 and 0 min for VAS scores and plasma hormone concentrations and between t=−15 to 0 min for basal pyloric pressures, number, and amplitude of IPPWs, antral and duodenal PWs, and total number of duodenal PWSs. Basal pyloric pressures and the number and amplitude of IPPWs were expressed as means over 15-min segments during the 90-min infusion period. Numbers and amplitudes of antral and duodenal PWs were expressed as total number and mean values, respectively, for the 90-min infusion period. Duodenal PWSs were expressed as the total number of waves travelling over two, three, four, five, six, and seven channels during the 90-min infusion period. All data, except for plasma CCK and GLP-1 concentrations, were expressed as changes from baseline.\nVAS scores, basal pyloric pressures, number and amplitude of IPPWs, and plasma hormone concentrations were analyzed by repeated-measures mixed model analysis of covariance (ANCOVA), with baseline as the covariate and time (0-90 min, at 15-min intervals) and treatment as within-subject factors. One-way ANOVA was used to assess the effect of treatment on energy intake, time taken to complete eating, total numbers and mean amplitudes of antral and duodenal PWs, and total number of duodenal PWSs. A logarithmic transformation was applied to nausea scores, antral amplitudes, and duodenal PWSs travelling 7.5 and 9 cm to better address the underlying assumptions of the models used (as these variables lacked normal distribution). If significance or near significance ([…]) was found, post hoc comparisons of least-squares means using Student's t-tests were performed. […]"}, "plasma GLP-1": {"tested_on": "plasma GLP-1", "assay": "Plasma GLP-1 concentrations by radioimmunoassay", "type": "in vivo, human", "description": "as §2\n(§3) Venous blood samples (10 ml) were collected in ice-chilled EDTA-treated tubes containing 400 kIU aprotinin (Trasylol, Bayer Australia) per millilitre of blood. Plasma was separated by centrifugation (3,200 rpm, 15 min, 4° C.) within 30 min of collection and stored at −70° C. until assayed.\nPlasma GLP-1 concentrations (in pmol/l) were measured by radioimmunoassay using an adaptation of a previously published method (4) Antibody, supplied by Prof. […] It is likely that this antibody also reacts with the degraded form of GLP-1(9-36) amide. Intra-assay CV was 17% and interassay CV was 18%, with a sensitivity of 1.5 pmol/l."}, "CCK secretion": {"tested_on": "CCK secretion", "settings": "humans, cited from earlier work"}, "[2]": {"assay": "Energy intake from the buffet meal after intraduodenal infusion", "type": "in vivo, human", "description": "as §1, §2\nEnergy intake from the buffet meal [energy consumption (in kJ) and macronutrient distribution (in % and g energy)] was analyzed using commercially available software (Food works 3.0, Xyris Software; Highgate Hill, Queensland, Australia). The time taken to finish the meal (in min) was also evaluated."}, "[3]": {"assay": "Antropyloroduodenal (APD) pressures by manometry during intraduodenal infusion", "type": "in vivo, human", "description": "Subjects attended the laboratory at 0830 after fasting from 2200 the previous night from both solids and liquids. They were intubated with a 17-channel manometric catheter (Dentsleeve; Adelaide, South Australia, Australia) that was inserted through an anesthetized nostril and allowed to pass through the stomach and into the duodenum by peristalsis. The manometric catheter, which consisted of 16 sideholes spaced at 1.5-cm intervals, measures pressures in the antrum, pylorus, and duodenum. Six side holes (channels 1-6) were positioned in the antrum, a 4.5-cm sleeve sensor (channel 7), with two channels present on the back of the sleeve (channels 8 and 9), designed to measure pressure waves occurring over the entire pyloric region, were positioned across the pylorus, and seven channels were positioned in the duodenum (channels 10-16). An additional channel, used for intraduodenal infusions, was positioned 11.75 cm distal to the end of the sleeve sensor. The correct positioning of the catheter, so the sleeve sensor straddled the pylorus, was maintained by continuous measurement of the transmucosal potential difference (TMPD) between the most distal antral channel (channel 6; approximately −40 mV) and the most proximal duodenal channel (channel 10; ˜0 mV). For this purpose, an intravenous cannula filled with sterile saline was placed subcutaneously in the left forearm and used as a reference electrode. All manometric channels were perfused with degassed, distilled water except for the two TMPD channels, which were perfused with degassed 0.9% saline at 0.15 ml/min. An intravenous cannula was also placed into a right forearm vein for blood sampling to measure plasma CCK and GLP-1 concentrations.\nas §2\nAPD pressures. Manometric pressures were digitized, recorded on a computer-based system (PowerMac 7100/75, Apple Computers; Cupertino, Calif.) running commercially available software (HAD, Associate Prof. G S Hebbard, Melbourne, Australia) written in LabView 3.1.1 (National Instruments), and stored for subsequent analysis. APD pressures were analysed for 1) number and amplitude of isolated pyloric pressure waves (IPPWs) and pressure waves (PWs) in the antrum and duodenum and 2) number and length of PW sequences (PWSs) in the duodenum using custom-written software (Gastrointestinal Motility Unit; Utrecht, The Netherlands) modified to our requirements. […]"}, "[4]": {"settings": "isomolar concentrations; cited from earlier work"}, "plasma CCK": {"tested_on": "plasma CCK", "assay": "Plasma CCK concentrations by radioimmunoassay", "type": "in vivo, human", "description": "as §2, §3\nPlasma CCK concentrations (in pmol/l) were determined after ethanol extraction using a previously described radioimmunoassay (3). A commercially available antibody (C258, Lot 105H4852, Sigma Chemical) raised in rabbits against the synthetic sulfated CCK-8 was employed. […] The intra-assay coefficient of variation (CV) was 9% and the interassay CV was 27%, with a sensitivity of 2.5 pmol/l. The sensitivity of the assay relates to its reliable detection limit."}, "[5]": {"settings": "during 90 min intraduodenal infusion, 0.375 kcal/min, compared with control"}, "[6]": {"settings": "buffet meal, compared with control"}, "[7]": {"settings": "90 min infusion, compared with control"}}, "note": "Read-outs that look alike come from different tables or passages of the source.", "data": [{"smiles": "CCCCCCCCCC(=O)O", "note": "[C10, decanoic (C10:0) acid, reference compound]", "values": [{"measurement": "fullness (VAS) after meal ingestion", "setting": "[1]; at 120 and 150 min, after the buffet meal", "result": "no difference between C10 and control"}, {"measurement": "scores for bloating (VAS)", "setting": "[1]; during 90 min intraduodenal infusion, 0.375 kcal/min", "result": "increased scores for bloating compared with control"}, {"measurement": "nausea scores (VAS)", "setting": "[1]; [5]", "result": "no difference in nausea scores between C10 and control"}, {"measurement": "scores for hunger (VAS)", "setting": "[1]; [5]", "result": "no differences were found between C10 and control"}, {"measurement": "scores for prospective consumption (VAS)", "setting": "[1]; [5]", "result": "no differences were found between C10 and control"}, {"measurement": "scores for desire to eat (VAS)", "setting": "[1]; during 90 min intraduodenal infusion, 0.375 kcal/min, healthy males, compared with control", "result": "no differences were found between C10 and control"}, {"measurement": "plasma GLP-1 concentrations compared with control", "setting": "plasma GLP-1; during infusion, C12 effect from 30 to 90 min", "result": "no difference between C10 and control"}, {"measurement": "plasma GLP-1 concentrations after meal ingestion", "setting": "plasma GLP-1; t=120 and 150 min, compared with control", "result": "no difference between C10 and control"}, {"measurement": "stimulation of CCK secretion", "setting": "CCK secretion; gastric infusion", "result": "neither C11 nor C10"}, {"measurement": "energy intake at buffet meal", "setting": "[2]; after 90 min intraduodenal infusion 0.375 kcal/min, compared with control", "result": "no difference between C10 and control infusion"}, {"measurement": "amount of energy (in g) ingested from carbohydrate", "setting": "[2]; [6]", "result": "no difference between C10 and control"}, {"measurement": "amount of energy (in g) ingested from fat", "setting": "[2]; [6]", "result": "no difference between C10 and control"}, {"measurement": "amount of energy (in g) ingested from protein", "setting": "[2]; [6]", "result": "no difference between C10 and control"}, {"measurement": "time at which eating from the buffet meal was completed", "setting": "[2]; mean±SE, not statistically significant", "result": "20.6 ± 2.6", "unit": "min"}, {"measurement": "basal pyloric pressure (tone)", "setting": "[3]; [7]", "result": "significant difference between C10 and control"}, {"measurement": "number of antral PWs", "setting": "[3]; [7]", "result": "no difference between C10 and control"}, {"measurement": "number of duodenal PWs", "setting": "[3]; [7]", "result": "increased the number of duodenal PWs compared with control"}, {"measurement": "number of IPPWs compared with control", "setting": "[3]; C12: 0-15, 15-30 and 30-45 min, C10: 0-15 min", "result": "increased the number of IPPWs compared with control between 0 and 15 min"}, {"measurement": "number of duodenal PWSs travelling over six channels (7.5 to <9 cm)", "setting": "[3]; compared with control", "result": "decreased the number of waves that travelled over six channels compared with control"}, {"measurement": "number of duodenal PWSs travelling over three channels (3 to <4.5 cm)", "setting": "[3]; compared with control", "result": "no difference between C12 or C10 and control"}, {"measurement": "number of duodenal PWSs travelling over two channels (1.5 to <3 cm)", "setting": "[3]; compared with control", "result": "increased the number of waves compared with control"}, {"measurement": "number of waves that travelled over nine channels", "setting": "[3]; compared with control", "result": "no difference between C10 and control"}, {"measurement": "amplitude of IPPWs compared with control", "setting": "[3]; throughout the infusion period", "result": "no significant differences between C10 and control"}, {"measurement": "cytotoxicity relative to C12", "setting": "[4]", "result": "similar"}, {"measurement": "plasma CCK concentrations", "setting": "plasma CCK; during 90 min infusion, compared with control", "result": "increased plasma CCK concentrations"}, {"measurement": "time of peak plasma CCK", "setting": "plasma CCK; from start of infusion", "result": 15, "unit": "min"}]}, {"smiles": "CCCCCCCCCCC(=O)O", "note": "[C11]", "values": [{"measurement": "stimulation of CCK secretion", "setting": "CCK secretion; gastric infusion", "result": "neither C11 nor C10"}]}, {"smiles": "CCCCCCCCCCCCCCCCCC(=O)O", "note": "[C18]", "values": [{"measurement": "stimulation of CCK secretion", "setting": "CCK secretion; duodenal infusion", "result": "reported to stimulate CCK secretion"}]}]}
